Data published in patent US11318077B2, “Retinaldehyde containing compositions and methods of use” (RODAN & FIELDS, LLC, priority 2017, dated 2022).
“And” between values parts separate entries of the source, which are not always exact repeats. Equal values may be shown once.

Assays:
[1] = tested on: Retinoid X receptor (RXR) transcription factor pathway; assay: Cignal RXR Reporter Assay (firefly luciferase) in HEK293 cells; assay type: cell-based; details: for RXR activation (% control): 24 h, vs water; for Activity in RXR reporter assay: tested concentrations
Source text: Objective: Retinoid X receptors (RXRs) are one class of nuclear receptors through which retinoids mediate their biological effects. These receptors function as transcription factors by binding as heterodimers to specific sequences in the promoters of target genes. The protein encoded by this gene is a member of the steroid and thyroid hormone receptor superfamily of transcriptional regulators. One of its ligands is all trans retinoic acid (ATRA)—a compound with well-established anti-aging skin benefits. […] Cignal RXR Reporter Assay® is designed to screen for such compounds (retinoic acid (ATRA), retinal, 10% w/w Near-1 in dimethylisosorbide, and 10% w/w retinoid ester in dimethylisosorbide) using cell cultures. The objective of this project was to test four compounds for the ability to activate RXR in this Cignal RXR Reporter Assay model.
(§1) The experiments were performed using HEK293 cells (Sigma, St. Louis, Mo.; cat. #85120602) seeded at 50,000 per well in a 96 well black-wall tissue culture plate. Cells were transfected by mixing Cignal RXR Reporter Assay firefly/renilla luciferase constructs (cat. #CCS9044L; Qiagen) with Attractene Transfection Reagent (Qiagen) in Opti-MEM supplemented with 1% MEM Non-essential amino acid solution without Lglutamine. After medium change test materials were added and their effect on RXR induction was quantified 24 h later with the Dual-Luciferase Reporter Assay System (cat. #E1960; Promega).
RXR is a mixture of an inducible retinoid X receptor—responsive firefly luciferase construct and a constitutively expressing Renilla construct, which acts as an internal control for normalizing transfection efficiencies and monitoring cell viability. Signal quantification was obtained with ThermoFisher Scientific Luminoskan Ascent Microplate Luminometer.

[2] = tested on: Retinoic Acid Response Element (RARE) transcription factor pathway; assay: Cignal RARE Reporter Assay (firefly luciferase) in HEK293 cells; assay type: cell-based; details: for RARE-mediated firefly luciferase expression, % control / RARE-mediated firefly luciferase expression, Fold increase: 24 h, vs water; for Activity in RARE reporter assay: tested concentrations
Source text: Objective: Retinoic Acid Receptor (RAR) controls gene transcription by binding to Retinoid Acid Response Elements (RAREs) in DNA. This process is modulated by all trans retinoic acid (ATRA)—a compound with well-established anti-aging skin benefits. […] Cignal RARE Reporter Assay® is designed to screen for such compounds using cell cultures. The objective of this project was to test 6 compounds (retinoic acid (ATRA), retinol, vitamin A palmitate, retinal, 10% w/w Near-1 in dimethylisosorbide, and 10% w/w retinoid ester in dimethylisosorbide) for the ability to activate RARE in this Cignal RARE Reporter Assay model.
as §1, with “Materials & Methods: The” for “The”, “Cignal” for “Cignal RXR”, “#CCS-016L;” for “#CCS9044L;”, “L-glutamine.” for “Lglutamine.”, “RARE” for “RXR”

[3] = tested on: mild to moderate lines and wrinkles, dullness and moderate dyschromia; assay: Expert Grader clinical grading assessment of efficacy, IRS compared with 0.1% Adapalene; assay type: in vivo, human (women)
Source text: (§2) The objective of the study is to evaluate and compare the anti-aging efficacy and tolerability of 0.1% Adapalene compared to Intensive Renewing Serum over a 12-week period when used by women with mild to moderate lines and wrinkles, dullness and moderate dyschromia.
(§3) Expert Grader Assessments: In addition to screening and selecting the final panel, an Expert Grader assessed the face of each subject for various irritation and efficacy parameters at Baseline and after 2, 4, 8 and 12 weeks of treatment. The scale that was used for each assessment parameter (unless otherwise indicated) is: 0=none, 1-3=mild, 4-5=moderate, […].
(§4) Efficacy parameters: The assessments of efficacy were made using methods that would provide the Sponsor the most information on changes in the subject's skin over time. The methods that the Expert Grader used to assess efficacy are as follows: 1. Live Grading: Absolute scores from viewing the subject's face were assigned using a 0-9 scale. Live grades were conducted at each time point. 2. Baseline Aided Grading: Absolute scores from viewing the subject's face were assigned using a 0-9 scale at the Baseline visit and the Expert Grader used the subject's Baseline photo for reference at follow-up visits. Baseline aided grading was conducted at each time point other than at Baseline. 3. Comparison Grading from Photos: Comparison grading was performed after the conclusion of the study. The Expert Grader compared the photos from each time point to Baseline for improvement/worsening using the below scale: −4=Marked worsening, −3=Moderate worsening, −2=Mild worsening, −1=Barely perceptible worsening, −0.1=Forced choice worsening, 0=No change, 0.1=Forced choice improvement, 1=Barely perceptible improvement, 2=Mild improvement, 3=Moderate improvement, and 4=Marked improvement.
The following efficacy parameters were assessed by the Expert Grader along with the assessment method(s) are listed: 1. Skin Texture (softness/smoothness) [tactile]: Live grading, 2. Skin Texture [visual]: Live grading/Baseline aided, 3. Fine Lines (eye area including crow's feet): Live grading/Baseline aided/Comparison scores from photos, 4. Wrinkles (eye area, including crows feet): Live grading, Baseline aided, Comparison scores from photos, 5. Pore appearance: Comparison scores from photos, 6. Firmness: Live grading, 7. Sagging (nasolabial fold area): Comparison scores from photos, 8. Discrete hyperpigmentation: Comparison scores from photos, 9. Mottled hyperpigmentation: Comparison scores from photos, 10. Skin tone evenness: Comparison scores from photos, 11. Radiance/luminosity/glow (defined as Dull to luminous/shiny): Live grading, 12. Sallowness (sallow to rosy): Live grading/Baseline aided, 13. Overall healthy skin appearance: Comparison scores from photos, 14. Overall photodamage: Live grading/Baseline aided, 15. Pinch recoil (under the eye): Live grading (For this assessment, a 0-9 score will not be assigned. Per the Sponsor, the evaluator will pinch the subject's skin at the designated site using the thumb and forefinger and hold the skin in place for approximately 2 seconds. A stopwatch will be started upon release and the time required for the subject's skin to return to its original conformation will be measured to the nearest tenth of a second. A decrease in pinch recoil times over time indicates an improvement in skin “bounce-back” or elasticity/resiliency.). […]

[4] = tested on: mild to moderate lines and wrinkles, dullness and moderate dyschromia; assay: Comparison grading from photos, IRS compared with 0.1% Adapalene; assay type: in vivo, human (women)
Protocol: as §4
The following efficacy parameters were assessed by the Expert Grader along with the assessment method(s) are listed: 1. Skin Texture (softness/smoothness) [tactile]: Live grading, 2. Skin Texture [visual]: Live grading/Baseline aided, 3. Fine Lines (eye area including crow's feet): Live grading/Baseline aided/Comparison scores from photos, 4. […] Pinch recoil (under the eye): Live grading (For this assessment, a 0-9 score will not be assigned. Per the Sponsor, the evaluator will pinch the subject's skin at the designated site using the thumb and forefinger and hold the skin in place for approximately 2 seconds. A stopwatch will be started upon release and the time required for the subject's skin to return to its original conformation will be measured to the nearest tenth of a second. A decrease in pinch recoil times over time indicates an improvement in skin “bounce-back” or elasticity/resiliency.). […]

[5] = tested on: mild to moderate lines and wrinkles, dullness and moderate dyschromia; assay: Tolerability assessments (subjective and objective), IRS compared with 0.1% Adapalene, 12 weeks; assay type: in vivo, human (women); details: IRS vs 0.1% Adapalene
Source text: as §2
Subjects reported to the facility at Baseline for Expert Grader assessments of various facial photoaging and irritation parameters, subjective assessments of facial irritation, digital imaging of the face, replica sampling of the crow's foot area, capacitance and firmness/elasticity measurements of the face and completed a self-assessment questionnaire. Subjects were randomized to receive 1 of 2 investigational products for treatment to the entire face for 12 weeks. Subjects returned to the lab at Week 2 and Week 4 to have Expert Grader assessments, digital imaging and self-assessments repeated. At Weeks 8 and 12, subjects returned for Expert Grader assessments, digital imaging, replica sampling, capacitance and firmness/elasticity measurements and self-assessments.
as §3
Irritation parameters: The Expert Grader assessed the face of each subject at each time point for the following irritation parameters using a 0-9 scale: Erythema, Dryness, Scaling, and Edema. Using a 0-9 scale, subjects were asked to rate their amount of: Burning, Stinging, Itching, Tightness, and Dryness.
Treatment Procedures: approximately 20-25 subjects assigned to each product per randomization. After the Baseline assessments and measurements had been completed, the subjects reported to the Treatment Technician, who dispensed a new container of their assigned product to the subject and instructed the subject to apply the product according to the Sponsor's instructions below:
Product C: Morning instructions: Follow your regular morning skincare routine. Evening instructions: Product C should be used once daily in the evening, after your regular cleanser. Open a capsule by twisting off the tail end of one capsule. Apply the serum over your entire face, including under the eyes and crow's feet. […] Avoid getting into eyes, In case of inadvertent eye contact, rinse eyes with plenty of water to remove product from eyes. […] Use one capsule per night. Follow with the rest of your evening skin care Regimen. Note: make sure that no water gets into the jar and that your hands are dry before use. Please ensure the jar is tightly closed after each use.
Product N: Morning instructions: Follow your regular morning skincare routine. Evening instructions: Product N should be used once daily in the evening, after your regular cleanser. Clean the skin gently with your regular cleanser and pat dry before applying Product N. Cover the entire face, including under the eyes and crow's feet, with a thin layer. […] Avoid product contact with eyes, lips and mouth. If contact occurs, immediately flush the area with water. […] Wash hands after use. […] Follow with the rest of your evening skin care Regimen.

CC1=C(/C=C/C(C)=C/C=C/C(C)=C/C(=O)O)C(C)(C)CCC1 [ATRA, all trans retinoic acid]
RXR activation (% control) ([1]; 0.2 μM): 201 % control | RXR activation (% control) ([1]; 1 μM): 340 % control | RXR activation (% control) ([1]; 5 μM): 437 % control | Activity in RXR reporter assay [1]: best performers | RARE-mediated firefly luciferase expression, % control ([2]; 0.2 μM): 775 % control and 1099 % control | RARE-mediated firefly luciferase expression, Fold increase ([2]; 0.2 μM): 7.8 and 11.0 | RARE-mediated firefly luciferase expression, % control ([2]; 1 μM): 1054 % control and 1284 % control | RARE-mediated firefly luciferase expression, Fold increase ([2]; 1 μM): 10.5 and 12.8 | RARE-mediated firefly luciferase expression, % control ([2]; 5 μM): 973 % control | RARE-mediated firefly luciferase expression, Fold increase ([2]; 5 μM): 9.7

COc1ccc(-c2ccc3cc(C(=O)O)ccc3c2)cc1C12CC3CC(CC(C3)C1)C2 [Adapalene, adapalene]
Elasticity/Resiliency, clinical grading ([3]; by weeks 8 & 12): No improvement | Skin Texture (Visual), clinical grading ([3]; by weeks 8 & 12): slight improvement | Fine Lines, clinical grading ([3]; comparable first 4 weeks, mild improvements by week 8, course to week 12): remains constant | Radiance/Luminosity/Glow, clinical grading ([3]; over 12 weeks): Mild improvement persists through week 8 | Skin Texture (Tactile), clinical grading ([3]; over 12 weeks): By week 12, no improvement | Photo comparison mean scores (overall) ([4]; IRS vs 0.1% Adapalene): mean scores slightly favored Adapalene | Discrete Hyperpigmentation, photo comparison ([4]; over 12 weeks): slightly better results | Mottled Hyperpigmentation, photo comparison ([4]; over 12 weeks): progressive & slightly better result | Burning (subjective) [5]: somewhat greater degree of perceived burning | Dryness (objective, clinical) [5]: greater degree of tactile dryness | Erythema (objective, clinical) [5]: somewhat greater degree of erythema | Scaling (objective, clinical) [5]: greater degree of visual scaling | Stinging (subjective) [5]: somewhat greater degree of perceived stinging | Dryness/Tightness (subjective) ([5]; most notably at Week 4): slightly greater perception of dryness/tightness

CC1=C(/C=C/C(C)=C/C=C/C(C)=C/C=O)C(C)(C)CCC1 [Retinal, retinaldehyde]
RXR activation (% control) ([1]; 1 μM): 131 % control | RXR activation (% control) ([1]; 5 μM): 181 % control | RXR activation (% control) ([1]; 10 μM): 279 % control | times less effective in modulating RXR pathway in comparison to retinoic acid ([1]; at 5 uM): 2.4 times | Activity in RXR reporter assay [1]: best performers | RARE-mediated firefly luciferase expression, % control ([2]; 1 μM): 613 % control | RARE-mediated firefly luciferase expression, Fold increase ([2]; 1 μM): 6.1 | RARE-mediated firefly luciferase expression, % control ([2]; 5 μM): 1005 % control | RARE-mediated firefly luciferase expression, Fold increase ([2]; 5 μM): 10.0 | RARE-mediated firefly luciferase expression, % control ([2]; 10 μM): 946 % control | RARE-mediated firefly luciferase expression, Fold increase ([2]; 10 μM): 9.5 | times less effective than retinoic acid in modulating the RARE pathway ([2]; at 1 uM): 1.7 times | effectiveness vs retinoic acid in modulating the RARE pathway ([2]; at 5 uM): equivalent to retinoic acid | Activity in RARE reporter assay [2]: best performer

CC1=C(/C=C/C(C)=C/C=C/C(C)=C/CO)C(C)(C)CCC1 [Retinol, retinol]
RARE-mediated firefly luciferase expression, % control ([2]; 1 μM): 138 % control and 150 % control | RARE-mediated firefly luciferase expression, Fold increase ([2]; 1 μM): 1.4 and 1.5 | RARE-mediated firefly luciferase expression, % control ([2]; 5 μM): 268 % control and 253 % control | RARE-mediated firefly luciferase expression, Fold increase ([2]; 5 μM): 2.7 and 2.5 | RARE-mediated firefly luciferase expression, % control ([2]; 10 μM): 278 % control and 294 % control | RARE-mediated firefly luciferase expression, Fold increase ([2]; 10 μM): 2.8 and 2.9

CCCCCCCCCCCCCCCC(=O)OC/C=C(C)/C=C/C=C(C)/C=C/C1=C(C)CCCC1(C)C [Vit A Palmitate, vitamin A palmitate]
RARE-mediated firefly luciferase expression, % control ([2]; 1 μM): 75 % control and 76 % control | RARE-mediated firefly luciferase expression, Fold increase ([2]; 1 μM): 0.7 and 0.8 | RARE-mediated firefly luciferase expression, % control ([2]; 5 μM): 77 % control and 73 % control | RARE-mediated firefly luciferase expression, Fold increase ([2]; 5 μM): 0.8 and 0.7 | RARE-mediated firefly luciferase expression, % control ([2]; 10 μM): 86 % control and 67 % control | RARE-mediated firefly luciferase expression, Fold increase ([2]; 10 μM): 0.9 and 0.7 | Activity in RARE reporter assay [2]: All test materials except Vit-A-Pal were active
